As usually defined, the IC50 is the point on the concentration scale where inhibition reaches its midpoint. A low value points to inhibition by little substance. One may read the half-life as the time in which the quantity being followed falls by half. In general, microsomal CLint refers to the rate of metabolic loss divided by the concentration. A word on the Tmax: it is the time at which the peak concentration occurs.

The record followed here is ChEMBL document CHEMBL1155860, “Structure-activity relationship study of bone morphogenetic protein (BMP) signaling inhibitors” (Bioorg Med Chem Lett, 2008).

The target in data set [1] is T1, Bone morphogenetic protein 4 (Homo sapiens, UniProt P12644).
T1 sequence (P12644 whole entry): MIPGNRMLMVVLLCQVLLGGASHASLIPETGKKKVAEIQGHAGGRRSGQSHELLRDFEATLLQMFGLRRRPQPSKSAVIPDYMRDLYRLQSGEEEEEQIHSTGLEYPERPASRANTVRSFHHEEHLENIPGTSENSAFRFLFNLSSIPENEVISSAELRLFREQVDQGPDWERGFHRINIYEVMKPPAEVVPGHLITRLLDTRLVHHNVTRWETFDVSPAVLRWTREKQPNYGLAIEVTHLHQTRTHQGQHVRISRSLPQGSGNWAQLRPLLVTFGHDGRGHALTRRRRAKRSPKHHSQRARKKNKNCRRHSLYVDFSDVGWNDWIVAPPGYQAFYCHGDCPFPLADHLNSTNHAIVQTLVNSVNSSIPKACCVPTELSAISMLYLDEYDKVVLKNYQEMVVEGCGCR
The data set is described as follows: Inhibition of BMP4-induced phosphorylation of SMAD 1/5/8 by cytoblot cellular ELISA. (In an ELISA, binding on a coated surface is turned into a signal by an enzyme label.)

Data set [2] can be described thus: Metabolic stability in mouse liver microsomes assessed as half life. In kind it is ADME, Microsome. A general note: Liver microsomes are vesicles of endoplasmic reticulum, rich in cytochrome P450 enzymes.
Data set [3] can be described thus: Metabolic stability in mouse liver microsomes assessed as intrinsic clearance. In kind it is ADME, Microsome.
Data set [4] can be described thus: Half life in female C57B16 mouse at 3.0 mg/kg, ip. It counts as ADME, organism-based. Details: dose 3 mg/kg, route intraperitoneal. To be noted: in vivo.
Data set [5] can be described thus: Tmax in male C57B16 mouse at 3.0 mg/kg, ip. Particulars: in vivo. In kind it is ADME, organism-based. Details: dose 3 mg/kg, route intraperitoneal.
The nature of data set [6]: Tmax in female C57B16 mouse at 3.0 mg/kg, ip. Details: dose 3 mg/kg, route intraperitoneal. It counts as ADME, organism-based. To be noted: in vivo.

Bounds are passed on as bounds.

In turn, `CCN(CC)CCOc1ccc(-c2cnc3c(-c4ccncc4)cnn3c2)cc1` gave an IC50 in data set [1] of 500 nM.

Consider `c1ccc(-c2cnc3c(-c4ccnc5ccccc45)cnn3c2)cc1`, for which the half-inhibitory concentration (IC50) in data set [1] was found to be 750 nM.

`CN1CCN(CCOc2ccc(-c3cnc4c(-c5ccncc5F)cnn4c3)cc2)CC1`: it took 3300 nM to reach half-maximal inhibition in data set [1] (IC50).

Turning to `c1ccc2c(-c3ccn4cc(-c5ccc(OCCN6CCCCC6)cc5)cnc34)ccnc2c1`, in data set [1], the IC50 is 2600 nM.

For `COc1ccc(-c2cnc3c(-c4ccc5ncccc5c4)cnn3c2)cc1`, the IC50 in data set [1] is > 20000 nM.

As for `c1cncc(-c2cnn3cc(-c4ccc(OCCN5CCCCC5)cc4)cnc23)c1`, the IC50 in data set [1] is > 20000 nM.

`COc1ccc(-c2ccc3c(-c4ccnc5ccccc45)cnn3c2)cc1`: the IC50 in data set [1] is 150 nM.

In the case of `COc1ccc(-c2cnc3c(-c4ccnc5ccccc45)ccn3c2)cc1`, the IC50 in data set [1] is > 20000 nM.

Turning to `c1cc(-c2cnn3cc(-c4ccc(OCCN5CCCCC5)cc4)cnc23)ccn1` [DORSOMORPHIN], 430 nM corresponded to half-maximal inhibition in data set [1] (IC50).

Regarding `CN1CCN(CCOc2ccc(-c3cnc4c(-c5ccnc6ccccc56)cnn4c3)cc2)CC1`, the half-life in data set [2] came out at 13.3 min. For the same molecule, the microsomal CLint in data set [3] came out at 104 µL/min/mg. The molecule further returned an IC50 in data set [1] of 10 nM.

As to `c1cc(-c2cnn3cc(-c4ccc(OCCN5CCOCC5)cc4)cnc23)ccn1`, the half-inhibitory concentration (IC50) in data set [1] was 2000 nM.

Turning to `c1ccc2c(-c3cnn4cc(-c5ccc(N6CCNCC6)cc5)ccc34)ccnc2c1`, the IC50 in data set [1] amounted to 5 nM. This IC50 lies about 400-fold lower than the previous one.

As for `COC(=O)c1cc(-c2ccnc3ccccc23)c2ncc(-c3ccc(OC)cc3)cn12`, the IC50 in data set [1] was > 20000 nM.

In turn, `Oc1ccc(-c2cnc3c(-c4ccnc5ccccc45)cnn3c2)cc1` returned an IC50 in data set [1] of 250 nM. In other words, the sub-micromolar range.

In data set [1], `Clc1ccc2c(-c3cnn4cc(-c5ccc(N6CCNCC6)cc5)cnc34)ccnc2c1` came in with a half-maximal inhibitory concentration (IC50) of 350 nM.

In turn, `COc1ccc(-c2cnc3c(-c4ccnc5ccccc45)cnn3c2)cc1` returned an IC50 in data set [1] of 55 nM.

`COc1ccc(-c2cnc3c(-c4ccnc5cc(Cl)ccc45)cnn3c2)cc1` showed an IC50 in data set [1] of 500 nM.

For the molecule `COc1ccc(-c2cnc3c(-c4cccc5cccnc45)cnn3c2)cc1`, in data set [1], the IC50 is > 20000 nM.

Turning to `CN1CCN(CCOc2cccc(-c3cnc4c(-c5ccncc5)cnn4c3)c2)CC1`, the IC50 in data set [1] is 4500 nM.

Consider `c1cc2ncc(-c3ccc(OCCN4CCCCC4)cc3)cn2n1`, for which, in data set [1], the IC50 is > 20000 nM.

Take `c1ccc(-c2cnn3cc(-c4ccc(OCCN5CCCCC5)cc4)cnc23)cc1`: the IC50 in data set [1] is > 20000 nM.

In turn, `COc1ccc(-c2cnc3c(-c4cccc5ncccc45)cnn3c2)cc1` had an IC50 in data set [1] of 3000 nM. This counts as single-digit micromolar.

The molecule `c1ccc2c(-c3cnn4cc(-c5ccc(OCCN6CCCCC6)cc5)cnc34)ccnc2c1` returned an IC50 in data set [1] of 90 nM.

For `COc1ccc(-c2cnc3c(-c4cnc5ccccc5c4)cnn3c2)cc1`, the IC50 in data set [1] is > 20000 nM.

On to `CN1CCN(CCOc2ccc(-c3cnc4c(-c5ccncc5)cnn4c3)cc2)CC1`, for which the IC50 in data set [1] was determined as 450 nM.

Regarding `Cc1nn2cc(-c3ccc(OCCN4CCN(C)CC4)cc3)cnc2c1-c1ccncc1`, the IC50 in data set [1] was > 20000 nM.

In turn, `c1cc(-c2cnc3c(-c4ccnc5ccccc45)cnn3c2)cc(N2CCNCC2)c1` returned an IC50 in data set [1] of 20000 nM.

`c1ccc2c(-c3cnn4cccnc34)ccnc2c1` yielded an IC50 in data set [1] of 5000 nM. Against the preceding molecule, the IC50 is about 4-fold lower.

For the molecule `COc1ccc(-c2cnc3c(-c4ccncc4)cnn3c2)cc1`, in data set [1], the 50% inhibitory concentration (IC50) came out at 6500 nM.

The molecule `c1ccc2c(-c3cnn4cc(-c5ccc(N6CCNCC6)cc5)cnc34)ccnc2c1` gave a half-life in data set [4] of 96 min. Further, the time of peak concentration (Tmax) in data set [5] and in data set [6] was < 5 min throughout. In data set [1], this molecule displayed an IC50 of 4.9 nM.
